From patent publication US20230085307A1, “PYRIDAZINONE COMPOUND AND HERBICIDE” (NISSAN CHEMICAL CORPORATION, priority 2019, published 2023)

How the values were obtained:
[1] = tested on: green foxtail; assay: Test Example 4: herbicidal effect by soil treatment (Table 19, symbol G); assay type: in vivo, green foxtail (Setaria viridis); conditions: amount of applied herbicide 320 g/ha
How it was run: (§1)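 In this soil treatment, the formulated compound reached the seeds only through the soil: seeds were buried about 1.5 cm deep in sterilized diluvial soil, then the diluted emulsion was sprayed over the surface. After three weeks at 25° C. to 30° C. in a greenhouse, effects were graded on criteria from an earlier test.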

[2] = tested on: lambsquarters; assay: Test Example 5: herbicidal effect by foliage application, plastic box (Table 20, symbol O); assay type: in vivo, lambsquarters (Chenopodium album); conditions: foliage application, 320 g/ha, evaluated three weeks after application
How it was run: (§2)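 Plants were sown into sterilized diluvial soil under about 1.5 cm cover and kept in a greenhouse at 25° C. to 30° C. Fourteen days on, foliage received an even spray of the diluted emulsion. Herbicidal or crop effect was judged three weeks afterwards.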

[3] = tested on: barnyard grass; assay: Test Example 4: herbicidal effect by soil treatment (Table 19, symbol H); assay type: in vivo, barnyard grass (Echinochloa crus-galli); conditions: amount of applied herbicide 320 g/ha
How it was run: as §1

[4] = tested on: blackgrass; assay: Test Example 4: herbicidal effect by soil treatment (Table 19, symbol J); assay type: in vivo, blackgrass (Alopecurus myosuroides); conditions: amount of applied herbicide 320 g/ha
How it was run: as §1

[5] = tested on: wild oat; assay: Test Example 5: herbicidal effect by foliage application, plastic box (Table 20, symbol I); assay type: in vivo, wild oat (Avena fatua); conditions: foliage application, 320 g/ha, evaluated three weeks after application
How it was run: as §2

[6] = tested on: southern crabgrass; assay: Test Example 5: herbicidal effect by foliage application, plastic box (Table 20, symbol F); assay type: in vivo, southern crabgrass (Digitaria ciliaris); conditions: foliage application, 320 g/ha, evaluated three weeks after application
How it was run: as §2

[7] = tested on: rice flat sedge; assay: Test Example 3: herbicidal effect by foliage application, Wagner pot (Table 18, symbol E); assay type: in vivo, rice flat sedge (Cyperus iria); conditions: amount of applied herbicide 320 g/ha
How it was run: (§3)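 Plants were sown in alluvial soil held under 0.1–0.5 cm standing water and grown 14 days in a greenhouse at 25–30 °C. An emulsifiable formulation, water-diluted to the set dose, was then sprayed onto the foliage, and effects were scored three weeks later using previously defined criteria.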

[8] = tested on: persian speedwell; assay: Test Example 4: herbicidal effect by soil treatment (Table 19, symbol R); assay type: in vivo, Persian speedwell (Veronica persica); conditions: amount of applied herbicide 320 g/ha
How it was run: as §1

[9] = tested on: wild oat; assay: Test Example 4: herbicidal effect by soil treatment (Table 19, symbol I); assay type: in vivo, wild oat (Avena fatua); conditions: amount of applied herbicide 320 g/ha
How it was run: as §1

[10] = tested on: windgrass; assay: Test Example 4: herbicidal effect by soil treatment (Table 19, symbol L); assay type: in vivo, windgrass (Apera spica-venti); conditions: amount of applied herbicide 320 g/ha
How it was run: as §1

[11] = tested on: redroot pigweed; assay: Test Example 4: herbicidal effect by soil treatment (Table 19, symbol N); assay type: in vivo, redroot pigweed (Amaranthus retroflexus); conditions: amount of applied herbicide 320 g/ha
How it was run: as §1

[12] = tested on: green foxtail; assay: Test Example 5: herbicidal effect by foliage application, plastic box (Table 20, symbol G); assay type: in vivo, green foxtail (Setaria viridis); conditions: foliage application, 320 g/ha, evaluated three weeks after application
How it was run: as §2

[13] = tested on: Italian ryegrass; assay: Test Example 5: herbicidal effect by foliage application, plastic box (Table 20, symbol K); assay type: in vivo, Italian ryegrass (Lolium multiflorum); conditions: foliage application, 320 g/ha, evaluated three weeks after application
How it was run: as §2

[14] = tested on: persian speedwell; assay: Test Example 5: herbicidal effect by foliage application, plastic box (Table 20, symbol R); assay type: in vivo, Persian speedwell (Veronica persica); conditions: foliage application, 320 g/ha, evaluated three weeks after application
How it was run: as §2

[15] = tested on: Chinese sprangletop; assay: Test Example 3: herbicidal effect by foliage application, Wagner pot (Table 18, symbol D); assay type: in vivo, chinese sprangletop (Leptochloa chinensis); conditions: amount of applied herbicide 320 g/ha
How it was run: as §3

[16] = tested on: lambsquarters; assay: Test Example 4: herbicidal effect by soil treatment (Table 19, symbol O); assay type: in vivo, lambsquarters (Chenopodium album); conditions: amount of applied herbicide 320 g/ha
How it was run: as §1

[17] = tested on: velvetleaf; assay: Test Example 5: herbicidal effect by foliage application, plastic box (Table 20, symbol M); assay type: in vivo, velvetleaf (Abutilon theophrasti); conditions: foliage application, 320 g/ha, evaluated three weeks after application
How it was run: as §2

[18] = tested on: southern crabgrass; assay: Test Example 4: herbicidal effect by soil treatment (Table 19, symbol F); assay type: in vivo, southern crabgrass (Digitaria ciliaris); conditions: amount of applied herbicide 320 g/ha
How it was run: as §1

[19] = tested on: redroot pigweed; assay: Test Example 5: herbicidal effect by foliage application, plastic box (Table 20, symbol N); assay type: in vivo, redroot pigweed (Amaranthus retroflexus); conditions: foliage application, 320 g/ha, evaluated three weeks after application
How it was run: as §2

[20] = tested on: Italian ryegrass; assay: Test Example 4: herbicidal effect by soil treatment (Table 19, symbol K); assay type: in vivo, Italian ryegrass (Lolium multiflorum); conditions: amount of applied herbicide 320 g/ha
How it was run: as §1

[21] = tested on: false cleavers; assay: Test Example 5: herbicidal effect by foliage application, plastic box (Table 20, symbol Q); assay type: in vivo, false cleavers (Galium spurium); conditions: foliage application, 320 g/ha, evaluated three weeks after application
How it was run: as §2

[22] = tested on: velvetleaf; assay: Test Example 4: herbicidal effect by soil treatment (Table 19, symbol M); assay type: in vivo, velvetleaf (Abutilon theophrasti); conditions: amount of applied herbicide 320 g/ha
How it was run: as §1

[23] = tested on: barnyard grass; assay: Test Example 5: herbicidal effect by foliage application, plastic box (Table 20, symbol H); assay type: in vivo, barnyard grass (Echinochloa crus-galli); conditions: foliage application, 320 g/ha, evaluated three weeks after application
How it was run: as §2

[24] = tested on: blackgrass; assay: Test Example 5: herbicidal effect by foliage application, plastic box (Table 20, symbol J); assay type: in vivo, blackgrass (Alopecurus myosuroides); conditions: foliage application, 320 g/ha, evaluated three weeks after application
How it was run: as §2

[25] = tested on: barnyard grass; assay: Test Example 3: herbicidal effect by foliage application, Wagner pot (Table 18, symbol H); assay type: in vivo, barnyard grass (Echinochloa crus-galli); conditions: amount of applied herbicide 320 g/ha
How it was run: as §3

[26] = tested on: windgrass; assay: Test Example 5: herbicidal effect by foliage application, plastic box (Table 20, symbol L); assay type: in vivo, windgrass (Apera spica-venti); conditions: foliage application, 320 g/ha, evaluated three weeks after application
How it was run: as §2

[27] = tested on: chickweed; assay: Test Example 5: herbicidal effect by foliage application, plastic box (Table 20, symbol P); assay type: in vivo, common chickweed (Stellaria media); conditions: foliage application, 320 g/ha, evaluated three weeks after application
How it was run: as §2

[28] = tested on: chickweed; assay: Test Example 4: herbicidal effect by soil treatment (Table 19, symbol P); assay type: in vivo, common chickweed (Stellaria media); conditions: amount of applied herbicide 320 g/ha
How it was run: as §1

| SMILES | G: green foxtail, herbicidal effect rating [1] | H: barnyard grass, herbicidal effect rating [3] | J: blackgrass, herbicidal effect rating [4] | herbicidal effect on E: rice flat sedge [7] | R: persian speedwell, herbicidal effect rating [8] | I: wild oat, herbicidal effect rating [9] | L: windgrass, herbicidal effect rating [10] | N: redroot pigweed, herbicidal effect rating [11] | herbicidal effect on D: Chinese sprangletop [15] | O: lambsquarters, herbicidal effect rating [16] | F: southern crabgrass, herbicidal effect rating [18] | K: Italian ryegrass, herbicidal effect rating [20] | M: velvetleaf, herbicidal effect rating [22] | herbicidal effect on H: barnyard grass [25] | P: chickweed, herbicidal effect rating [28] | also measured |
| --- | --- | --- | --- | --- | --- | --- | --- | --- | --- | --- | --- | --- | --- | --- | --- | --- |
| COc1ccc(-c2sc3ccc(Cl)cc3c2-c2c(O)c(C)nn(C)c2=O)cc1OC [2-123] | 0 (Herbicidal rate of 5% or less (almost no effect)) | 0 (Herbicidal rate of 5% or less (almost no effect)) | 0 (Herbicidal rate of 5% or less (almost no effect)) | 5 (Herbicidal rate of 90% or more (almost completely withered)) | 4 (Herbicidal rate of 70% or more and less than 90%) | 0 (Herbicidal rate of 5% or less (almost no effect)) | 0 (Herbicidal rate of 5% or less (almost no effect)) | 0 (Herbicidal rate of 5% or less (almost no effect)) | 0 (Herbicidal rate of 5% or less (almost no effect)) | 4 (Herbicidal rate of 70% or more and less than 90%) | 0 (Herbicidal rate of 5% or less (almost no effect)) | 0 (Herbicidal rate of 5% or less (almost no effect)) | 0 (Herbicidal rate of 5% or less (almost no effect)) | 3 (Herbicidal rate of 40% or more and less than 70%) | 3 (Herbicidal rate of 40% or more and less than 70%) | herbicidal effect on O: lambsquarters [2]: 2 (Herbicidal rate of 20% or more and less than 40%); herbicidal effect on I: wild oat [5]: 0 (Herbicidal rate of 5% or less (almost no effect)); herbicidal effect on F: southern crabgrass [6]: 0 (Herbicidal rate of 5% or less (almost no effect)); herbicidal effect on G: green foxtail [12]: 0 (Herbicidal rate of 5% or less (almost no effect)); herbicidal effect on K: Italian ryegrass [13]: 2 (Herbicidal rate of 20% or more and less than 40%); herbicidal effect on R: persian speedwell [14]: 5 (Herbicidal rate of 90% or more (almost completely withered)); herbicidal effect on M: velvetleaf [17]: 3 (Herbicidal rate of 40% or more and less than 70%); herbicidal effect on N: redroot pigweed [19]: 0 (Herbicidal rate of 5% or less (almost no effect)); herbicidal effect on Q: false cleavers [21]: 1 (Herbicidal rate of 5% or more and less than 20%); herbicidal effect on H: barnyard grass [23]: 0 (Herbicidal rate of 5% or less (almost no effect)); herbicidal effect on J: blackgrass [24]: 4 (Herbicidal rate of 70% or more and less than 90%); herbicidal effect on L: windgrass [26]: 1 (Herbicidal rate of 5% or more and less than 20%); herbicidal effect on P: chickweed [27]: 5 (Herbicidal rate of 90% or more (almost completely withered)) |
| CCCOc1cccc(-c2sc3ccc(F)cc3c2-c2c(OC(=O)CCC)c(C)nn(C)c2=O)c1 [2-214] | 4 (Herbicidal rate of 70% or more and less than 90%) | 3 (Herbicidal rate of 40% or more and less than 70%) | 0 (Herbicidal rate of 5% or less (almost no effect)) | 4 (Herbicidal rate of 70% or more and less than 90%) | 5 (Herbicidal rate of 90% or more (almost completely withered)) | 0 (Herbicidal rate of 5% or less (almost no effect)) | 0 (Herbicidal rate of 5% or less (almost no effect)) | 5 (Herbicidal rate of 90% or more (almost completely withered)) | 3 (Herbicidal rate of 40% or more and less than 70%) | 2 (Herbicidal rate of 20% or more and less than 40%) | 4 (Herbicidal rate of 70% or more and less than 90%) | 0 (Herbicidal rate of 5% or less (almost no effect)) | 3 (Herbicidal rate of 40% or more and less than 70%) | 3 (Herbicidal rate of 40% or more and less than 70%) | 3 (Herbicidal rate of 40% or more and less than 70%) | herbicidal effect on O: lambsquarters (criteria 0-5) [2]: 2 (Herbicidal rate of 20% or more and less than 40%); herbicidal effect on I: wild oat (criteria 0-5) [5]: 0 (Herbicidal rate of 5% or less (almost no effect)); herbicidal effect on F: southern crabgrass (criteria 0-5) [6]: 4 (Herbicidal rate of 70% or more and less than 90%); herbicidal effect on G: green foxtail (criteria 0-5) [12]: 4 (Herbicidal rate of 70% or more and less than 90%); herbicidal effect on K: Italian ryegrass (criteria 0-5) [13]: 1 (Herbicidal rate of 5% or more and less than 20%); herbicidal effect on R: persian speedwell (criteria 0-5) [14]: 5 (Herbicidal rate of 90% or more (almost completely withered)); herbicidal effect on M: velvetleaf (criteria 0-5) [17]: 3 (Herbicidal rate of 40% or more and less than 70%); herbicidal effect on N: redroot pigweed (criteria 0-5) [19]: 4 (Herbicidal rate of 70% or more and less than 90%); herbicidal effect on Q: false cleavers (criteria 0-5) [21]: 2 (Herbicidal rate of 20% or more and less than 40%); herbicidal effect on H: barnyard grass (criteria 0-5) [23]: 1 (Herbicidal rate of 5% or more and less than 20%); herbicidal effect on J: blackgrass (criteria 0-5) [24]: 0 (Herbicidal rate of 5% or less (almost no effect)); herbicidal effect on L: windgrass (criteria 0-5) [26]: 0 (Herbicidal rate of 5% or less (almost no effect)); herbicidal effect on P: chickweed (criteria 0-5) [27]: 5 (Herbicidal rate of 90% or more (almost completely withered)) |
